Source: patent US10106559B2, “Substituted tetrahydrocarbazole and carbazole carboxamide compounds” (BRISTOL-MYERS SQUIBB COMPANY, priority 2013, dated 2018)

Assays:
[1] = system: CD69 expression on B cells in human whole blood; assay: Whole Blood Assay of BCR-Stimulated CD69 Expression on B Cells; format: cell-based; details: B-cell
Jak2 tyrosine kinase = Jak2 tyrosine kinase (Homo sapiens (Human), UniProt O60674); assay: Jak2 Tyrosine Kinase Assay; format: biochemical; details: for Ratio of Jak2/Btk IC50 values: selectivity: Jak2 IC50 divided by Btk IC50
Jak2 tyrosine kinase, sequence (O60674 whole entry): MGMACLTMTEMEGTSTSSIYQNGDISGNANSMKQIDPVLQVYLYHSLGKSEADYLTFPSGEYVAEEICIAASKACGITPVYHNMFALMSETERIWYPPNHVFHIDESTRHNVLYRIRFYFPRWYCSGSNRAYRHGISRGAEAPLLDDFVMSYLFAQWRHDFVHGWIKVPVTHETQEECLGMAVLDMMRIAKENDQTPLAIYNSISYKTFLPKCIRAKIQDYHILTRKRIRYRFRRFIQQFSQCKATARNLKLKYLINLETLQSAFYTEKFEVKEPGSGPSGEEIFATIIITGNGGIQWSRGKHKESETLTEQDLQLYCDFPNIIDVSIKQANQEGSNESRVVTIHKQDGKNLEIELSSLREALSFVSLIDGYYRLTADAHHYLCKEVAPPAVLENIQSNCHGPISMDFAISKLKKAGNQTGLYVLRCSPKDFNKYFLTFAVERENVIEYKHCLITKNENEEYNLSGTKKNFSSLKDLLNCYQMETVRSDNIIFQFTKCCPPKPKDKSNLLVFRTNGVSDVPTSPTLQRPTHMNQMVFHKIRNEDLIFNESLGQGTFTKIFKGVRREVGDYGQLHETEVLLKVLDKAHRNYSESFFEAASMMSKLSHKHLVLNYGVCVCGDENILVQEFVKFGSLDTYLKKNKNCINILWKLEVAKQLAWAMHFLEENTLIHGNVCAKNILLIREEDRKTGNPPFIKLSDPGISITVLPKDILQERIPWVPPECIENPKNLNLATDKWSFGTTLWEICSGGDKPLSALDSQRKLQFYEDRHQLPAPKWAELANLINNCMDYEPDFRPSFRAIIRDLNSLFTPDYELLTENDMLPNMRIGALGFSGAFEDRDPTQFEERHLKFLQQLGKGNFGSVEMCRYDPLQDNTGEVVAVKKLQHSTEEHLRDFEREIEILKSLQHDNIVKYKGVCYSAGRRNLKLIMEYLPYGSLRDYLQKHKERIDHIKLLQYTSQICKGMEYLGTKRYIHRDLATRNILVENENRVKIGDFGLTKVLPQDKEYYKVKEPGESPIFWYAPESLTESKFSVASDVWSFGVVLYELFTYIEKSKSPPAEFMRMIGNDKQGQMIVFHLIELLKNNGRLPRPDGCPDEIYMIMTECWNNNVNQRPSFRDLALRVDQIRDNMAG

human recombinant Btk = human recombinant Btk (Homo sapiens (Human), UniProt Q06187); assay: Human Recombinant Btk Enzyme Assay; format: biochemical
human recombinant Btk, sequence (Q06187 whole entry): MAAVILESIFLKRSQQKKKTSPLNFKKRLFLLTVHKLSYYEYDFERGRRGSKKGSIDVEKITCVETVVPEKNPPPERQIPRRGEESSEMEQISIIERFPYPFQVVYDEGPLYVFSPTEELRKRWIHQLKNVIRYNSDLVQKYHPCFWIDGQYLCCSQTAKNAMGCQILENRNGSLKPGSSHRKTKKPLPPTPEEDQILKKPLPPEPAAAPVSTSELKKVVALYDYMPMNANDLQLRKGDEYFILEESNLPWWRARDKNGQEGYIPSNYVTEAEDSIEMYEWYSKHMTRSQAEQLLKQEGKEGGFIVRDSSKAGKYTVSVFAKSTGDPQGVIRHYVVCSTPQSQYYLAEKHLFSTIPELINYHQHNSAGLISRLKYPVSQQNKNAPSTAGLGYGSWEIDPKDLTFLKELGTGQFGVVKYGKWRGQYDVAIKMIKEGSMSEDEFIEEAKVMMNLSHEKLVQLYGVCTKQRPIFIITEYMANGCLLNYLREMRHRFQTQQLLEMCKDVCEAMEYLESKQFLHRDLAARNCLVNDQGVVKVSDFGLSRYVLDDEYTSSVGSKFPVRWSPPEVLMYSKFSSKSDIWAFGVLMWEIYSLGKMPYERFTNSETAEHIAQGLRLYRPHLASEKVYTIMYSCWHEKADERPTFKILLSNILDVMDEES

Structure (SMILES)	IC50 [1] [nM]	Ratio of Jak2/Btk IC50 values (Jak2 tyrosine kinase)	further results
Cc1c(-c2c(Cl)cc(C(N)=O)c3[nH]c4cc(C(C)(C)O)ccc4c23)cccc1-n1c(=O)c2ccc(F)cc2n(C)c1=O [Example 9, 3-Chloro-4-(R)-(3-(7-fluoro-1-methyl-2,4-dioxo-1,2-dihydroquinazolin-3(4H)-yl)-2-methylphenyl)-7-(2-hydroxypropan-2-yl)-9H-carbazole-1-carboxamide]	76		
Cc1c(-c2c(Cl)cc(C(N)=O)c3[nH]c4c(c23)CC[C@H](C(C)(C)O)C4)cccc1-n1c(=O)c2cccc(F)c2n(C)c1=O [Example 25, 6-Chloro-5-(3-(8-fluoro-1-methyl-2,4-dioxo-1,2-dihydroquinazolin-3(4H)-yl)-2-methylphenyl)-2-(S)-(2-hydroxypropan-2-yl)-2,3,4,9-tetrahydro-1H-carbazole-8-carboxamide]	200		
Cc1c(-c2c(Cl)cc(C(N)=O)c3[nH]c4cc(C(C)(C)O)ccc4c23)cccc1-n1c(=O)c2ccccc2n(C)c1=O [Example 3, 3-Chloro-7-(2-hydroxypropan-2-yl)-4-(R)-(2-methyl-3-(1-methyl-2,4-dioxo-1,2-dihydroquinazolin-3(4H)-yl)phenyl)-9H-carbazole-1-carboxamide]	130		
Cc1c(-c2c(F)cc(C(N)=O)c3[nH]c4c(c23)CC[C@H](C(C)(C)O)C4)cccc1-n1c(=O)[nH]c2c(F)cccc2c1=O (single isomer, unassigned) [Example 59]	260		
[2H]C([2H])([2H])n1c(=O)n(-c2cccc(-c3c(F)cc(C(N)=O)c4[nH]c5c(c34)CC[C@H](C(C)(C)O)C5)c2C)c(=O)c2cccc(F)c21 (single isomer, unassigned) [Example 62]	74	>4900	
Cc1c(-c2c(F)cc(C(N)=O)c3[nH]c4cc(C(C)(C)O)ccc4c23)cccc1-n1c(=O)[nH]c2c(F)cc(F)cc2c1=O (single isomer, unassigned) [Example 50]		3800	IC50 (human recombinant Btk): 0.32 nM; IC50 (Jak2 tyrosine kinase): 1200 nM
Cc1c(-c2c(Cl)cc(C(N)=O)c3[nH]c4cc(C(C)(C)O)ccc4c23)cccc1-n1c(=O)c2cccc(C)c2n(C)c1=O [Example 4, 3-Chloro-4-(R)-(3-(1,8-dimethyl-2,4-dioxo-1,2-dihydroquinazolin-3(4H)-yl)-2-methylphenyl)-7-(2-hydroxypropan-2-yl)-9H-carbazole-1-carboxamide]	180		
Cc1c(-c2c(Cl)cc(C(N)=O)c3[nH]c4cc(C(C)(C)O)ccc4c23)cccc1-n1c(=O)c2cc(F)ccc2n(C)c1=O [Example 8, 3-Chloro-4-(R)-(3-(6-fluoro-1-methyl-2,4-dioxo-1,2-dihydroquinazolin-3(4H)-yl)-2-methylphenyl)-7-(2-hydroxypropan-2-yl)-9H-carbazole-1-carboxamide]	75		
Cc1c(-c2c(Cl)cc(C(N)=O)c3[nH]c4cc(C(C)(C)O)ccc4c23)cccc1-n1c(=O)[nH]c2c(F)cc(F)cc2c1=O (racemic) [Example 10, 3-Chloro-4-(RS)-(3-(RS)-(6,8-difluoro-2,4-dioxo-1,2-dihydroquinazolin-3(4H)-yl)-2-methylphenyl)-7-(2-hydroxypropan-2-yl)-9H-carbazole-1-carboxamide]	110		
Cc1c(-c2c(F)cc(C(N)=O)c3[nH]c4c(c23)CC[C@H](C(C)(C)O)C4)cccc1-n1c(=O)cc2c(F)cccn2c1=O (single isomer, unassigned) [Example 68]	75	630	
[2H]C([2H])([2H])n1c(=O)n(-c2cccc(-c3c(F)cc(C(N)=O)c4[nH]c5cc(C(C)(C)O)ccc5c34)c2C)c(=O)c2cccc(F)c21 (single isomer, unassigned) [Example 52]	25		
Cc1c(-c2c(F)cc(C(N)=O)c3[nH]c4c(c23)CC[C@H](C(C)(C)O)C4)cccc1-n1c(=O)[nH]c2c(Cl)cccc2c1=O (single isomer, unassigned) [Example 63]	190	24000	
Cc1c(-c2c(Cl)cc(C(N)=O)c3[nH]c4c(c23)CC[C@H](C(C)(C)O)C4)cccc1-n1c(=O)[nH]c2c(F)cc(F)cc2c1=O (single isomer, unassigned) [Example 57]	54	1100	
CC(C)(O)c1ccc2c(c1)[nH]c1c(C(N)=O)cc(Cl)c(-c3cccc(-n4c(=O)[nH]c5c(F)cccc5c4=O)c3Cl)c12 [Example 47, 3-Chloro-4-(R)-(2-chloro-3-(8-fluoro-2,4-dioxo-1,2-dihydroquinazolin-3(4H)-yl)phenyl)-7-(2-hydroxypropan-2-yl)-9H-carbazole-1-carboxamide]	27		
Cc1c(-c2c(F)cc(C(N)=O)c3[nH]c4c(c23)CC[C@H](C(C)(C)O)C4)cccc1-n1c(=O)cc2c(Cl)cccn2c1=O (single isomer, unassigned) [Example 64]	88		
COc1cccc2c(=O)n(-c3cccc(-c4c(Cl)cc(C(N)=O)c5[nH]c6cc(C(C)(C)O)ccc6c45)c3C)c(=O)n(C)c12 [Example 7, 3-Chloro-7-(2-hydroxypropan-2-yl)-4-(R)-(3-(8-methoxy-1-methyl-2,4-dioxo-1,2-dihydroquinazolin-3(4H)-yl)-2-methylphenyl)-9H-carbazole-1-carboxamide]	130		
Cc1c(-c2c(F)cc(C(N)=O)c3[nH]c4cc(C(C)(C)O)ccc4c23)cccc1-n1c(=O)c2cccc(F)c2n(C)c1=O (single isomer, unassigned) [Example 74]	180		IC50 (Jak2 tyrosine kinase): 4300 nM
Cc1c(-c2c(F)cc(C(N)=O)c3[nH]c4cc(CCO)ccc4c23)cccc1-n1c(=O)cc2c(F)cccn2c1=O [Example 70]	66	930	
COc1ccc2c(=O)n(-c3cccc(-c4c(Cl)cc(C(N)=O)c5[nH]c6cc(C(C)(C)O)ccc6c45)c3C)c(=O)n(C)c2c1 (single isomer, unassigned) [Example 6]		1400	
Cc1c(-c2c(C#N)cc(C(N)=O)c3[nH]c4cc(C(C)(C)O)ccc4c23)cccc1-n1c(=O)c2cccc(F)c2n(C)c1=O [Example 15, 3-Cyano-4-(S)-(3-(8-fluoro-1-methyl-2,4-dioxo-1,2-dihydroquinazolin-3(4H)-yl)-2-methylphenyl)-7-(2-hydroxypropan-2-yl)-9H-carbazole-1-carboxamide]		2400	
COc1cccn2c(=O)n(-c3cccc(-c4c(Cl)cc(C(N)=O)c5[nH]c6cc(C(C)(C)O)ccc6c45)c3C)c(=O)cc12 [Example 37, 3-Chloro-7-(2-hydroxypropan-2-yl)-4-(3-(5-methoxy-1,3-dioxo-1H-pyrido[1,2-c]pyrimidin-2(3H)-yl)-2-methylphenyl)-9H-carbazole-1-carboxamide]	200	690	
Cn1c(=O)n(-c2cccc(-c3c(F)cc(C(N)=O)c4[nH]c5cc(C(C)(C)O)ccc5c34)c2Cl)c(=O)c2cccc(F)c21 [Example 46, 4-(2-Chloro-3-(8-fluoro-1-methyl-2,4-dioxo-1,2-dihydroquinazolin-3(4H)-yl)phenyl)-3-fluoro-7-(2-hydroxypropan-2-yl)-9H-carbazole-1-carboxamide]	88		
Cc1c(-c2c(F)cc(C(N)=O)c3[nH]c4c(c23)CC[C@H](C(C)(C)O)C4)cccc1-n1c(=O)cc2c(F)cccn2c1=O (single isomer, unassigned) [Example 69]		11000	
